Test results reported in patent US11078198B2 (BRISTOL-MYERS SQUIBB COMPANY, priority 2017, dated 2021).

Target: T1, human FXR (Homo sapiens, UniProt Q96RI1)
T1 construct: expressed in transfected cells; host or cells: HEK293 cells stably carrying a 5xGal4-response-element firefly luciferase reporter, transiently transfected with pcDNA3.1-Gal4-FXR
T1 sequence (Q96RI1 262-486 limits assumed): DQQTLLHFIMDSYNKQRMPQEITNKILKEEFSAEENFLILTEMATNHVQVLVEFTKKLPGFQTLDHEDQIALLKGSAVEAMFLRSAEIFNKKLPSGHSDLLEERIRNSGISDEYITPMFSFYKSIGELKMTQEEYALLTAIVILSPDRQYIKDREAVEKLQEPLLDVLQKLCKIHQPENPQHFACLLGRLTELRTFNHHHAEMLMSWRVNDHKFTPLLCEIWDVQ
Assay: transient human FXR/Gal4-luciferase reporter assay
Format: cell-based
Settings: Gal4-hFXR transfected HEK293 reporter cells; relative to 8 μM GW-4064
Procedure, shortened: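 Transient Gal4-hFXR LBD fusion (pcDNA3.1, Lipofectamine, overnight) expressed in a HEK293 reporter line stably bearing five Gal4 elements upstream of firefly luciferase, grown in charcoal/dextran-stripped FBS. Compound dilutions in DMSO incubated with cells overnight at 37° C, 5% CO2, before luciferase readout.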

Row | SMILES | EC50 [µM]
1 | O=C(O)c1cc(C(F)(F)F)c2cc(N3CCC4(C=C(c5c(C6CCCCC6)noc5C5CC5)C4)CC3)ccc2n1 [Example 98, 6-(2-(3-Cyclohexyl-5-cyclopropylisoxazol-4-yl)-7-azaspiro[3.5]non-1-en-7-yl)-4-(trifluoromethyl)quinoline-2-carboxylic acid] | 1.72
2 | O=C(O)c1cc2ccc(N3CCC4(C=C(c5c(-c6ccncc6Cl)noc5C5CC5)C4)CC3)cc2nn1 [Example 80, 7-(2-(3-(3-Chloropyridin-4-yl)-5-cyclopropylisoxazol-4-yl)-7-azaspiro[3.5]non-1-en-7-yl)cinnoline-3-carboxylic acid] | 1.36
3 | CC(C)(C)OC(=O)N1CCC2(CC1)COC(c1c(-c3c(Cl)cccc3Cl)noc1C1CC1)O2 (racemic) [(±)-tert-Butyl 2-(5-cyclopropyl-3-(2,6-dichlorophenyl)isoxazol-4-yl)-1,3-dioxa-8-azaspiro[4.5]decane-8-carboxylate] | 4.8
4 | COc1cc(C(=O)O)c2nc(N3CCC4(C=C(c5c(-c6c(Cl)cncc6Cl)noc5C5CC5)C4)CC3)sc2c1 [Example 70, 2-(2-(5-Cyclopropyl-3-(3,5-dichloropyridin-4-yl)isoxazol-4-yl)-7-azaspiro[3.5]non-1-en-7-yl)-6-methoxybenzo[d]thiazole-4-carboxylic acid] | 4.4
5 | Cn1cc(C(=O)O)c2ccc(N3CCC4(C=C(c5c(C6CCCCC6)noc5C5CC5)C4)CC3)cc21 [Example 168, 6-(2-(3-Cyclohexyl-5-cyclopropylisoxazol-4-yl)-7-azaspiro[3.5]non-1-en-7-yl)-1-methyl-1H-indole-3-carboxylic acid] | 3.97
6 | O=C(O)CNC(=O)c1ccc(N2CCC3(C=C(c4c(-c5ccccc5C(F)(F)F)noc4C4CC4)C3)CC2)nc1 [Example 31, (6-(2-(5-Cyclopropyl-3-(2-(trifluoromethyl)phenyl)isoxazol-4-yl)-7-azaspiro[3.5]non-1-en-7-yl)nicotinoyl)glycine] | 5.3
7 | O=C(O)c1cc(C(F)(F)F)c2cc(N3CCC4(C=C(c5c(-c6ncccc6Cl)noc5C5CC5)C4)CC3)ccc2n1 [Example 91, 6-(2-(3-(3-Chloropyridin-2-yl)-5-cyclopropylisoxazol-4-yl)-7-azaspiro[3.5]non-1-en-7-yl)-4-(trifluoromethyl)quinoline-2-carboxylic acid] | 0.219
8 | O=C(O)c1nc(C(F)(F)F)n2cc(N3CCC4(C=C(c5c(-c6c(Cl)cccc6Cl)noc5C5CC5)C4)CC3)ccc12 [Example 126, 6-(2-(5-Cyclopropyl-3-(2,6-dichlorophenyl)isoxazol-4-yl)-7-azaspiro[3.5]non-1-en-7-yl)-3-(trifluoromethyl)imidazo[1,5-a]pyridine-1-carboxylic acid] | 0.102
9 | NC(=O)c1cc(F)c2nc(N3CCC4(C=C(c5c(-c6c(Cl)cncc6Cl)noc5C5CC5)C4)CC3)sc2c1 [Example 202, 2-(2-(5-Cyclopropyl-3-(3,5-dichloropyridin-4-yl)isoxazol-4-yl)-7-azaspiro[3.5]non-1-en-7-yl)-4-fluorobenzo[d]thiazole-6-carboxamide] | 0.155
10 | CC(C)c1onc(-c2c(Cl)cccc2Cl)c1C1=CC2(CCN(c3ccc4nc(C(=O)O)cc(C(F)(F)F)c4c3)CC2)C1 [Example 84, 6-(2-(3-(2,6-Dichlorophenyl)-5-isopropylisoxazol-4-yl)-7-azaspiro[3.5]non-1-en-7-yl)-4-(trifluoromethyl)quinoline-2-carboxylic acid] | 0.127
11 | O=C(O)c1cnc(N2CCC3(C=C(c4c(-c5c(Cl)cccc5Cl)noc4C4CC4)C3)CC2)cn1 [Example 19, 5-(2-(5-Cyclopropyl-3-(2,6-dichlorophenyl)isoxazol-4-yl)-7-azaspiro[3.5]non-1-en-7-yl) pyrazine-2-carboxylic acid] | 0.11
12 | NS(=O)(=O)NC(=O)c1cc(F)c2nc(N3CCC4(C=C(c5c(-c6c(Cl)cncc6Cl)noc5C5CC5)C4)CC3)sc2c1 [Example 197, 2-(2-(5-Cyclopropyl-3-(3,5-dichloropyridin-4-yl)isoxazol-4-yl)-7-azaspiro[3.5]non-1-en-7-yl)-4-fluoro-N-sulfamoylbenzo[d]thiazole-6-carboxamide] | 0.381
13 | O=C(O)c1ccc(N2CCC3(C=C(c4c(-c5ccccc5OC(F)(F)F)noc4C4CC4)C3)CC2)nc1 [Example 21, 6-(2-(5-Cyclopropyl-3-(2-(trifluoromethoxy)phenyl)isoxazol-4-yl)-7-azaspiro[3.5]non-1-en-7-yl) nicotinic acid] | 0.77
14 | O=C(O)c1ccc2cc(N3CCC4(C=C(c5c(-c6c(F)cccc6Cl)noc5C5CC5)C4)CC3)ccc2n1 [Example 156, 6-(2-(3-(2-Chloro-6-fluorophenyl)-5-cyclopropylisoxazol-4-yl)-7-azaspiro[3.5]non-1-en-7-yl)quinoline-2-carboxylic acid] | 0.326
15 | O=C(O)c1cc2ccc(N3CCC4(C=C(c5c(-c6ccccc6C(F)(F)F)noc5C5CC5)C4)CC3)cc2cn1 [Example 159, 7-(2-(5-Cyclopropyl-3-(2-(trifluoromethyl)phenyl)isoxazol-4-yl)-7-azaspiro[3.5]non-1-en-7-yl)isoquinoline-3-carboxylic acid] | 0.254
16 | O=C(NC1CC1)c1cc(F)c2nc(N3CCC4(C=C(c5c(-c6c(Cl)cncc6Cl)noc5C5CC5)C4)CC3)sc2c1 [Example 201, N-Cyclopropyl-2-(2-(5-cyclopropyl-3-(3,5-dichloropyridin-4-yl)isoxazol-4-yl)-7-azaspiro[3.5]non-1-en-7-yl)-4-fluorobenzo[d]thiazole-6-carboxamide] | 0.15
17 | COc1cc(C(=O)O)nc2ccc(N3CCC4(C=C(c5c(-c6ccncc6Cl)noc5C5CC5)C4)CC3)cc12 [Example 109, 6-(2-(3-(3-Chloropyridin-4-yl)-5-cyclopropylisoxazol-4-yl)-7-azaspiro[3.5]non-1-en-7-yl)-4-methoxyquinoline-2-carboxylic acid] | 0.14
18 | O=C(O)c1ccc(N2CC3(C=C(c4c(-c5ccccc5C(F)(F)F)noc4C4CC4)C3)C2)nc1 [Example 35, 6-(6-(5-cyclopropyl-3-(2-(trifluoromethyl)phenyl)isoxazol-4-yl)-2-azaspiro[3.3]hept-5-en-2-yl)nicotinic acid] | 4.3
19 | Cc1cc(C(=O)O)cc2sc(N3CCC4(C=C(c5c(C(F)F)cnn5-c5ccccc5OC(F)(F)F)C4)CC3)nc12 [Example 221, 2-(2-(4-(Difluoromethyl)-1-(2-(trifluoromethoxy)phenyl)-1H-pyrazol-5-yl)-7-azaspiro[3.5]non-1-en-7-yl)-4-methylbenzo[d]thiazole-6-carboxylic acid] | 0.182
20 | COc1cc(C(=O)NS(C)(=O)=O)nc2ccc(N3CCC4(C=C(c5c(-c6ccccc6C(F)(F)F)noc5C5CC5)C4)CC3)cc12 [Example 196, 6-(2-(5-Cyclopropyl-3-(2-(trifluoromethyl)phenyl)isoxazol-4-yl)-7-azaspiro[3.5]non-1-en-7-yl)-4-methoxy-N-(methylsulfonyl)quinoline-2-carboxamide] | 0.155
21 | CC(C)c1onc(-c2c(Cl)cncc2Cl)c1C1=CC2(CCN(c3ccc4nc(C(=O)O)cc(C(F)(F)F)c4c3)CC2)C1 [Example 95, 6-(2-(3-(3,5-Dichloropyridin-4-yl)-5-isopropylisoxazol-4-yl)-7-azaspiro[3.5]non-1-en-7-yl)-4-(trifluoromethyl)quinoline-2-carboxylic acid] | 0.037
22 | O=C(O)c1cc(OC(F)F)c2cc(N3CCC4(C=C(c5c(-c6c(Cl)cncc6Cl)noc5C5CC5)C4)CC3)ccc2n1 [Example 73, 6-(2-(5-Cyclopropyl-3-(3,5-dichloropyridin-4-yl)isoxazol-4-yl)-7-azaspiro[3.5]non-1-en-7-yl)-4-(difluoromethoxy)quinoline-2-carboxylic acid] | 0.016
23 | O=C(O)c1ccc2oc(N3CCC4(C=C(c5c(-c6c(Cl)cccc6Cl)noc5C5CC5)C4)CC3)nc2c1 [Example 26, 2-(2-(5-Cyclopropyl-3-(2,6-dichlorophenyl)isoxazol-4-yl)-7-azaspiro[3.5]non-1-en-7-yl)benzo[d]oxazole-5-carboxylic acid] | 0.157
24 | O=C(O)c1cc(F)c2nc(N3CCC4(C=C(c5c(C(F)F)cnn5-c5ccccc5OC(F)(F)F)C4)CC3)sc2c1 [Example 217, 2-(2-(4-(Difluoromethyl)-1-(2-(trifluoromethoxy)phenyl)-1H-pyrazol-5-yl)-7-azaspiro[3.5]non-1-en-7-yl)-4-fluorobenzo[d]thiazole-6-carboxylic acid] | 0.23
25 | O=C(O)c1ccn2nc(N3CCC4(C=C(c5c(-c6ccccc6C(F)(F)F)noc5C5CC5)C4)CC3)ncc12 [Example 135, 2-(2-(5-Cyclopropyl-3-(2-(trifluoromethyl)phenyl)isoxazol-4-yl)-7-azaspiro[3.5]non-1-en-7-yl)pyrrolo[2,1-f][1,2,4]triazine-5-carboxylic acid] | 0.087
26 | O=C(O)c1cc(F)c2nc(N3[C@@H]4CC[C@H]3CC3(COC(c5c(-c6c(Cl)cccc6Cl)noc5C5CC5)O3)C4)sc2c1 (stereo partly drawn) [Example 41, 2-((1R,5S)-2′-(5-cyclopropyl-3-(2,6-dichlorophenyl)isoxazol-4-yl)-8-azaspiro[bicyclo[3.2.1]octane-3,4′-[1,3]dioxolan]-8-yl)-4-fluorobenzo[d]thiazole-6-carboxylic acid] | 1.7
27 | O=C(O)c1cc(F)c2nc(N3CCC4(C=C(c5c(-c6cnccc6C(F)(F)F)noc5C5CC5)C4)CC3)sc2c1 [Example 139, 2-(2-(5-Cyclopropyl-3-(4-(trifluoromethyl)pyridin-3-yl)isoxazol-4-yl)-7-azaspiro[3.5]non-1-en-7-yl)-4-fluorobenzo[d]thiazole-6-carboxylic acid] | 0.482
